Measurements taken from patent publication US20260325504A1, “Genetically Engineered Human Pituitary Corticotroph Tumor Organoids Exhibit Divergent Responses to Selective Glucocorticoid Receptor Modulators” (Corcept Therapeutics Incorporated, priority 2022, published 2026).
“Also recorded” adds a separate entry of the source. Where two headings read alike, the source gives them in different places.

Assays:
estrogen receptor = details: cited from earlier work
androgen receptor = details: cited from earlier work
[1] = system: ovarian cancer cell lines; details: in vitro; cited from earlier work
[2] = system: pancreatic cancer cell lines; details: in vitro; cited from earlier work
PitNET organoids = assay: PitNET organoid proliferation, apoptosis and cell death (summary); type: cell-based, human; details: for tumor cell apoptosis / cell death: PitNET organoids
Experimental: iPSCs were stained for pituitary specific hormones including luteinizing hormone (LH), follicle-stimulating hormone (FSH), growth hormone (GH), prolactin (PRL), ACTH, cytokeratin 8/18 (CAM5.2), pituitary transcription factor PIT-1 and neuroendocrine marker Synaptophysin (Table 5). Cultures were immunostained for proliferation marker EdU (Click-IT EdU Alexa Fluor 555 Imaging Kit, Thermo Fisher Scientific C10338). Antibody dilutions were determined based on manufacturer guidelines and antibody titration (Table 5). Staining was conducted according to previously published protocols. Briefly, organoids and iPSCs grown in 8-well glass bottom chamber slides were fixed using 3.7% formaldehyde, washed with DPBS, permeabilized with 0.5% Triton X-100 (SIGMA X-100, PBS-T, 20 min at room temperature), washed with 0.01% PBS-T, and blocked with 2% donkey serum (Jackson Immuno Research 017-000-121) for 1 hour at room temperature. After blocking, primary antibodies were added and incubated overnight at 4° C. […] Fluorescence intensity was quantified as the percentage of marker-positive cells versus total cells, using Nikon Elements Software (Version 5.21.05). Proliferation for each iPSC line was quantified as the percentage of EdU-positive cells versus total cells.
Nuclear Morphometric Analysis (NMA) using treated organoids was performed based on a published protocol that measures cell viability based on the changes in nuclear morphology of the cells using nuclear stain Hoechst or DAPI [31]. Images of organoid nuclei were analyzed using the ImageJ Nuclear Irregularity Index (NII) plugin for key parameters that included cell area, radius ratio, area box, aspect, and roundness. Using the published spreadsheet template, the NII of each cell was calculated with the following formula: NII=Aspect−Area Box+Radius Ratio+Roundness. […] The percentage of cells in each NII classification category were calculated and plotted as a histogram using GraphPad Prism. […]

iPSC^ctrl organoids = assay: ACTH secretion ELISA, iPSCctrl organoids; type: cell-based, human; details: 500 nM, 48 h, FIG. 6G
Experimental: (§1) Sonic Hedgehog (SHH) was withdrawn from the organoid growth media 16 hours prior to treatment. The experimental treatment groups included: vehicle (Veh), mifepristone (500 nM, Selleckchem S2606), GANT61 (5 μM, Stemcell Technologies 73692), ketoconazole (Keto, 10 μM, Selleckchem S1353), pasireotide (Pas, 100 nM, Target Mol TP2207-SB001), octreotide (Oct, 100 nM, Selleckchem P1017), mifepristone plus GANT61, mifepristone plus Keto, mifepristone plus Pas, relacorilant (500 nM, Corcept Therapeutics CORT125134), relacorilant plus Pas, relacorilant plus Oct, or dexamethasone (Dexa, 100 nM, SIGMA S4902). In the combination treatments, cultures were pretreated with the GANT61, Keto, Pas or Oct for 2 hours prior to treatment with mifepristone or Rela. PitNET tissue derived organoids hPITO36, hPITO37, hPITO38, hPITO39, and hPITO40 were treated with the following experimental conditions: Vehicle (1), pasireotide (2), relacorilant (3), relacorilant & pasireotide (4), mifepristone (5), mifepristone & pasireotide (6). The IC50 values used for each hPITO line for each drug were determined based on dose responses (FIG. 12). All organoid cultures were treated for 48 hours prior to analysis.
(§2) Organoid conditioned media was collected and ACTH secretion using an ELISA according to the manufacturer's protocol (Novus Biologicals Human ACTH ELISA Kit NBP2-66401). The optical density was measured at a wavelength of 450 nm, and ACTH concentration (pg/mL) was interpolated using a standard curve with a 4-parameter logistic regression analysis using GraphPad Prism (v9.3.1).

iPSC^USP48MV organoids = assay: ACTH secretion ELISA, iPSCUSP48 organoids; type: cell-based, human; details: text: iPSCUSP48MI; FIG. 7G: iPSCUSP48MV; 500 nM, 48 h
Experimental: as §1, §2

[3] = system: glucocorticoid receptor (GR); details: cited from earlier work

Row | SMILES | binding to the estrogen receptor (estrogen receptor) | binding to the androgen receptor (androgen receptor) | apoptosis [1] | apoptosis [2] | tumor cell apoptosis / cell death (PitNET organoids) | tumor cell apoptosis / cell death (PitNET organoids; listed as Relacorilant) | magnitude of ACTH secretion, mifepristone vs relacorilant (iPSC^ctrl organoids) | magnitude of ACTH secretion, mifepristone vs relacorilant (iPSC^USP48MV organoids) | binding to the glucocorticoid receptor [3] | binding to the glucocorticoid receptor ([3]; listed as Mifepristone) | PitNET organoid proliferation (PitNET organoids; compared to relacorilant)
1 | Cn1cc(S(=O)(=O)N2CCC3=Cc4c(cnn4-c4ccc(F)cc4)C[C@]3(C(=O)c3cc(C(F)(F)F)ccn3)C2)cn1 [relacorilant, (R)-(1-(4-fluorophenyl)-6-((1-methyl-1H-pyrazol-4-yl)sulfonyl)-4,4a,5,6,7,8-hexahydro-1H-pyrazolo[3,4-g]isoquinolin-4a-yl) (4-(trifluoromethyl)pyridin-2-yl) methanone] | no detectable binding | no detectable binding | induces apoptosis | induces apoptosis | induced SSTR5 expression and PitNET organoid apoptosis; also recorded: induced PitNET cell death | induces SSTR5 and tumor cell apoptosis | – | – | – | – | –
2 | CC#C[C@]1(O)CC[C@H]2[C@@H]3CCC4=CC(=O)CCC4=C3[C@@H](c3ccc(N(C)C)cc3)C[C@@]21C [mifepristone, 11β-(4-dimethylaminophenyl)-17ß-hydroxy-17α-(1-propynyl)-estra-4,9-dien-3-one] | – | – | – | – | – | – | significantly greater than the effect of relacorilant | significantly greater than the effect of relacorilant | competes with cortisol binding at the GR | typically with high affinity | preferentially induced the expression of SSTR2, ACTH secretion and PitNET organoid proliferation
